Laboratory results from patent publication US20160194299A1 (priority 2013, published 2016).
Values after ≈ are worked out from the molar mass of the structure shown. Where two headings read alike, the source gives them in different places.

Assays:
[1] = tested on: Mtb; assay: microbe, parasite or virus in culture; type: cell-based, Mycobacterium tuberculosis; conditions: Mycobacterium tuberculosis, read-out: MIC (III)
[2] = in vitro; conditions: African green monkey
[3] = tested on: Mtb; assay: microbe, parasite or virus in culture; type: cell-based, Mycobacterium tuberculosis; conditions: Mycobacterium tuberculosis, read-out: MIC (I)

SMILES | MIC [1] [µg/mL] | CC50 [2] [µg/mL] | MIC [3] [µg/mL]
C=CCOC(=O)NC(=O)c1ccsc1NC(=O)c1cnc2ccnn2c1 [Compound 297] | < 5 | < 25 | < 1
CC(C)OC(=O)NC(=O)c1ccsc1NC(=O)c1cnc2ccnn2c1 [Compound 298] | < 5 | < 25 | < 1
CCOC(=O)NC(=O)c1ccsc1NC(=O)c1cnc2c(-c3ccc(OC)cc3)cnn2c1 [Compound 299] | > 25 | < 25 | < 1
O=C(NC(=O)c1ccsc1NC(=O)c1cnc2ccnn2c1)OCc1ccccc1 [Compound 300] | > 25 | 25 to 50 (≈ 59.3 to 119 µM) | > 3
O=C(NC(=O)c1ccsc1NC(=O)c1nc2cnccc2s1)OCc1cccnc1 [Compound 301] | > 25 | 25 to 50 (≈ 56.9 to 114 µM) | > 3
C#CCOC(=O)NC(=O)c1ccsc1NC(=O)c1nc2ccccc2s1 [Compound 303] | > 25 | < 25 | < 1
CCC(OC(=O)NC(=O)c1ccsc1NC(=O)c1nc2cnccc2s1)c1ccccc1 (stereo not drawn) [Compound 305] | > 25 | < 25 | 1 to 3 (≈ 2.14 to 6.43 µM)
CCC(OC(=O)NC(=O)c1ccsc1NC(=O)c1cnc2ccnn2c1)c1ccccc1 (stereo not drawn) [Compound 306] | > 25 | < 25 | > 3
CCC(OC(=O)NC(=O)c1ccsc1NC(=O)c1nc2ccccc2s1)c1ccccc1 (stereo not drawn) [Compound 307] | 5 to 25 (≈ 10.7 to 53.7 µM) | < 25 | > 3
CCOC(=O)NC(=O)c1cc(CC(=O)O)sc1NC(=O)c1nc2cnccc2s1 [Compound 308] | > 25 | < 25 | > 3
CCOC(=O)NC(=O)c1ccsc1NC(=O)c1cn2c(n1)CCCC2 [Compound 309] | 5 to 25 (≈ 13.8 to 69 µM) | < 25 | 1 to 3 (≈ 2.76 to 8.28 µM)
CCOC(=O)NC(=O)c1ccsc1NC(=O)c1cc2ccccn2c1 [Compound 310] | > 25 | > 50 | > 3
CCOC(=O)NC(=O)c1ccsc1NC(=O)c1nc2cnc(N3CCOCC3)cc2s1 [Compound 311] | > 25 | > 50 | < 1
CCOC(=O)NC(=O)c1ccsc1NC(=O)Nc1nc2ccccc2s1 [Compound 312] | > 25 | 25 to 50 (≈ 64 to 128 µM) | > 3
COC(=O)NC(=O)c1ccsc1NC(=O)c1cnc2ccnn2c1 [Compound 313] | > 25 | 25 to 50 (≈ 72.4 to 145 µM) | > 3
COC(=O)NC(=O)c1ccsc1NC(=O)c1nc2cnccc2s1 [Compound 314] | > 25 | 25 to 50 (≈ 69 to 138 µM) | > 3
CCOC(=O)NC(=O)c1ccsc1NC(=O)c1cnc2c(N3CCOCC3)cnn2c1 [Compound 315] | > 25 | 25 to 50 (≈ 56.2 to 112 µM) | < 1
CC(C)OC(=O)NC(=O)c1cc(F)sc1NC(=O)c1cnc2ccnn2c1 [Compound 316] | > 25 | 25 to 50 (≈ 63.9 to 128 µM) | 1 to 3 (≈ 2.56 to 7.67 µM)
CC(C)OC(=O)NC(=O)c1ccsc1NC(=O)c1ccn2nccc2c1 [Compound 317] | > 25 | < 25 | < 1
CCOC(=O)NC(=O)c1cc(F)sc1NC(=O)c1nc2cccnc2s1 [Compound 318] | > 25 | 25 to 50 (≈ 63.4 to 127 µM) | < 1
O=C(NC(=O)c1ccsc1NC(=O)c1nc2ccccc2s1)OCCC(F)(F)F [Compound 319] | > 25 | < 25 | < 1
O=C(NC(=O)c1ccsc1NC(=O)c1nc2cnccc2s1)OCCC(F)(F)F [Compound 320] | > 25 | > 50 | < 1
O=C(NC(=O)c1ccsc1NC(=O)c1nc2ccccc2s1)OC1CCC1 [Compound 321] | > 25 | > 50 | < 1
O=C(NC(=O)c1ccsc1NC(=O)c1cnc2ccnn2c1)OCCC(F)(F)F [Compound 322] | > 25 | < 25 | > 3
CCC(CC)OC(=O)NC(=O)c1ccsc1NC(=O)c1cnc2ccnn2c1 [Compound 327] | > 25 | < 25 | 1 to 3 (≈ 2.49 to 7.47 µM)

SMILES | MIC [1] [µg/mL] | CC50 [2] [µg/mL] | MIC [3] [µg/mL]
CCC(CC)OC(=O)NC(=O)c1ccsc1NC(=O)c1nc2cnccc2s1 [Compound 328] | > 25 | < 25 | < 1
CCOC(=O)NC(=O)c1ccsc1NC(=O)c1cc2ccncc2s1 [Compound 329] | > 25 | < 25 | < 1
CC(C)OC(=O)NC(=O)c1ccsc1NC(=O)c1cc2c(F)cccc2s1 [Compound 330] | 5 to 25 (≈ 12.3 to 61.5 µM) | < 25 | < 1
CCOC(=O)NC(=O)c1ccsc1NC(=O)c1cc2c(F)cccc2s1 [Compound 331] | 5 to 25 (≈ 12.7 to 63.7 µM) | < 25 | < 1
CCOC(=O)NC(=O)c1ccsc1NC(=O)c1cc2cccnc2s1 [Compound 332] | > 25 | > 50 | < 1
CCOC(=O)NC(=O)c1ccsc1NC(=O)c1cc2ccc(Cl)cc2s1 [Compound 333] | 5 to 25 (≈ 12.2 to 61.1 µM) | 25 to 50 (≈ 61.1 to 122 µM) | < 1
CCOC(=O)NC(=O)c1ccsc1NC(=O)c1cc2cnccc2s1 [Compound 334] | > 25 | > 50 | < 1
CCOC(=O)NC(=O)c1ccsc1NC(=O)c1c(C)nc2ccc(C)cn12 [Compound 336] | > 25 | 25 to 50 (≈ 64.7 to 129 µM) | > 3
CCOC(=O)NC(=O)c1cc(F)sc1NC(=O)c1nc2cnccc2s1 [Compound 337] | > 25 | 25 to 50 (≈ 63.4 to 127 µM) | < 1
CCOC(=O)NC(=O)c1cc(F)sc1NC(=O)c1cn2ccccc2n1 [Compound 338] | > 25 | 25 to 50 (≈ 66.4 to 133 µM) | < 1
CC(C)OC(=O)NC(=O)c1cc(F)sc1NC(=O)c1cn2ccccc2n1 [Compound 339] | > 25 | 25 to 50 (≈ 64 to 128 µM) | < 1
CC(C)OC(=O)NC(=O)c1ccsc1NC(=O)c1cc2ncccn2n1 [Compound 340] | > 25 | 25 to 50 (≈ 67 to 134 µM) | < 1
CCOC(=O)NC(=O)c1cc(F)sc1NC(=O)c1cnc2ccnn2c1 [Compound 341] | > 25 | 25 to 50 (≈ 66.3 to 133 µM) | < 1
CC(C)OC(=O)NC(=O)c1cc(F)sc1NC(=O)c1nc2ccccc2s1 [Compound 342] | 5 to 25 (≈ 12.3 to 61.4 µM) | 25 to 50 (≈ 61.4 to 123 µM) | < 1
CCOC(=O)NC(=O)c1cc(F)sc1NC(=O)c1ccn2nccc2c1 [Compound 343] | > 25 | < 25 | < 1
CC(C)OC(=O)NC(=O)c1cc(F)sc1NC(=O)c1nc2cccnc2s1 [Compound 344] | > 25 | 25 to 50 (≈ 61.2 to 122 µM) | < 1
CC(C)OC(=O)NC(=O)c1cc(F)sc1NC(=O)c1cc2ncccn2n1 [Compound 345] | > 25 | 25 to 50 (≈ 63.9 to 128 µM) | < 1
CC(C)OC(=O)NC(=O)c1cc(F)sc1NC(=O)c1ccn2nccc2c1 [Compound 346] | > 25 | < 25 | 1 to 3 (≈ 2.56 to 7.68 µM)
COC(=O)NC(=O)c1ccsc1NC(=O)c1cn2ccccc2n1 [Compound 347] | > 25 | 25 to 50 (≈ 72.6 to 145 µM) | > 3
O=C(NCC(F)(F)F)NC(=O)c1ccsc1NC(=O)c1nc2ccccc2s1 [Compound 349] | > 25 | 25 to 50 (≈ 58.4 to 117 µM) | > 3
CC(C)OC(=O)NC(=O)c1ccsc1NC(=O)c1cc2ccccn2n1 [Compound 352] | > 25 | 25 to 50 (≈ 67.1 to 134 µM) | < 1
CCOC(=O)NC(=O)c1ccsc1NC(=O)c1cnc2ccoc2c1 [Compound 353] | > 25 | 25 to 50 (≈ 69.6 to 139 µM) | 1 to 3 (≈ 2.78 to 8.35 µM)
CC(C)OC(=O)NC(=O)c1ccsc1NC(=O)c1cnc2ccoc2c1 [Compound 354] | > 25 | 25 to 50 (≈ 67 to 134 µM) | > 3
CCOC(=O)NC(=O)c1ccsc1NC(=O)/C=C/c1ccncc1 [Compound 356] | > 25 | 25 to 50 (≈ 72.4 to 145 µM) | > 3
